Measurements from patent US20050014181A1, “Methods and compositions for the assessment of polymer assembly” (priority 2003, published 2005).

Tests used:
SMC = assay: SDS-PAGE / phosphoimager detection of FITC-labeled protein recovered after incubation with SMC; type: cell-based; conditions: 50 or 100 mg/mL, 24 h with SMC in culture
Method: SMC were plated in 6-well tissue culture plates at a density of 500,000 cells per well. After 24 h, the media was aspirated and replaced with 1 mL of serum-free media containing 50 or 100 µg/mL of FITC-labeled BSA, collagen, or denatured collagen and placed back in a 37° C., 5% CO2 incubator for 24 h for assembly. The SMC cultured with labeled proteins then were rinsed twice with PBS, after which cell extracts were taken using […] of acidified (0.02M of acetic acid) lysis buffer. Samples […] from each condition before and after culturing with SMC were run on an 1.5-mm SDS-PAGE gel (Biorad apparatus) for 2 h at 150 V. FITC-labeled protein bands were imaged using a phosphoimager (Storm 860, Molecular Dynamics) with the ability to detect green fluorescence.

mouse aortic SMC = assay: Protein assembly assay: FITC-labeled protein added to mouse aortic SMC (plate reader / fluorescence microscopy); type: cell-based; conditions: labeled protein incubated with SMC for 24 h
Method: In one embodiment, the assay consists of adding a solution of FITC-labeled protein to cultured cells in the presence or absence of various treatments, then returning the cells to the incubator (37° C., 5% CO2) for various periods of time. Supramolecular protein assembly can be followed in time as a gain of fluorescence using a fluorescence plate reader, or by confocal microscopy with live cells or after fixation of cells. Specifically, for the development of this assay, SMC were used that had been plated into black clear-bottomed 96-well tissue culture-treated plates (Fisher) at 10,000 cells per well in 100 µL of DMEM+10% FBS 2 days prior to performing the assay. […]
At the end of the assay, the culture medium was aspirated and replaced with 10% buffered formalin (Fisher) for 10 min. […] The wells subsequently were washed two times with PBS, then 100 µL of PBS were added to each well and the intensity of the fluorescence was measured with a fluorescence plate reader (CytoFluor® series 4000, PerSeptive Biosystems) using the following settings for protein assembly: ex=480 nm, em=530 nm, gain 85, and ex=360 nm, em=460 nm, gain 80 for cell nuclei.
In each quantitative assay, twelve wells of a 96-well plate were used for each condition. […]

[1] = system: SMC-mediated collagen fibrillogenesis; assay: Treatment effects on SMC-mediated collagen fibrillogenesis (FITC-labeled collagen assembly assay, fluorescence plate reader); type: cell-based, mouse; set-up: % fibrillogenesis of no treatment control / effect of treatment on SMC-assisted collagen fibrillogenesis (FIG. 5A-B) / effect of treatment on collagen fibrils (FIG. 5C): unit of the concentration uncertain; conditions: for % fibrillogenesis of no treatment control: 1 (unit uncertain) of compound (smallest concentration used), green fluorescence normalized by cell density
Method: In one embodiment, the assay consists of adding a solution of FITC-labeled protein to cultured cells in the presence or absence of various treatments, then returning the cells to the incubator (37° C., 5% CO2) for various periods of time. Supramolecular protein assembly can be followed in time as a gain of fluorescence using a fluorescence plate reader, or by confocal microscopy with live cells or after fixation of cells. Specifically, for the development of this assay, SMC were used that had been plated into black clear-bottomed 96-well tissue culture-treated plates (Fisher) at 10,000 cells per well in 100 µL of DMEM+10% FBS 2 days prior to performing the assay.
After 24 h, the culture medium was changed to DMEM without FBS to promote cell quiescence, then SMC were returned to the incubator (37° C., 5% CO2) for an additional 24 h. Before the start of the assay, the culture medium was aspirated from each well and replaced with 100 µL of FITC-labeled collagen, BSA, or denatured collagen in DMEM without FBS, final concentration between […]. The cells were returned to the incubator for time periods up to 24 h.
At the end of the assay, the culture medium was aspirated and replaced with 10% buffered formalin (Fisher) for 10 min. For normalization of results, cell nuclei were counterstained using HOECHST [500 ng/mL in phosphate-buffered saline (PBS), pH 7.4] for 5 min. The wells subsequently were washed two times with PBS, then 100 µL of PBS were added to each well and the intensity of the fluorescence was measured with a fluorescence plate reader (CytoFluor® series 4000, PerSeptive Biosystems) using the following settings for protein assembly: ex=480 nm, em=530 nm, gain 85, and ex=360 nm, em=460 nm, gain 80 for cell nuclei.
In each quantitative assay, twelve wells of a 96-well plate were used for each condition. Average background readings were obtained from wells without cells or without labeled collagen monomer solution (six each) to ensure that the assay measured only the cell-assisted protein assembly.
To assess the ability of our assay to detect the effects of treatments that interfere with cell cytoskeleton, and therefore may affect fibrillogenesis, SMC were pretreated with […] of cytochalasin D, a chemical that disrupts organization of the actin cytoskeleton, for 30 min prior to the assay. The same concentrations were maintained throughout the assay. Retinoic acid, which has the opposite effect, stiffening SMC cytoskeleton, was added at […] of final concentrations.
To test whether the assay can detect formation of fibrils by incorporating de novo synthesized endogenous collagen, effect of treatments that should directly affect this process were investigated. Ascorbic acid, which enhances the triple helix organization of de novo synthesized collagen, was added at 5, 10, and 50 µM of final concentrations to the SMC culture medium for 24 h prior to the assay and maintained throughout the assay. Homocysteine thiolactone, which is a lysyl oxidase inhibitor and thus impairs the higher organization of collagen, was used at 5, 10, 50, 100, and 500 µM of final concentration in the SMC culture media. To assess the potential effects of these treatments, fibrillogenesis was calculated as the percentage of fibrillogenesis mediated by nontreated SMC.

labeled BSA: FITC-labeled bovine serum albumin
association of labeled protein with SMC monolayer (SDS-PAGE) (SMC): neither BSA nor denatured collagen was associated with cells | supramolecular assembly seen by fluorescence microscopy (mouse aortic SMC): No assembly was detected

NC1CCSC1=O (stereo not shown) [homocysteine thiolactone, Homocysteine thiolactone]
effect on SMC-mediated collagen assembly ([1]; up to concentrations twice the IC50 value (5-500 M), data not shown): no effects

C=C1[C@@H](C)[C@H]2[C@H](Cc3ccccc3)NC(=O)[C@]23[C@H](OC(C)=O)/C=C/[C@@](C)(O)C(=O)[C@@H](C)C/C=C/[C@H]3[C@@H]1O [cytochalasin D, Cytochalasin D]
% fibrillogenesis of no treatment control [1]: 12.1±1.0% | effect of treatment on SMC-assisted collagen fibrillogenesis (FIG. 5A-B) ([1]; increasing concentrations (1, 5, 10 (unit uncertain))): impairs the ability of SMC to facilitate fibrillogenesis

CC1=C(/C=C/C(C)=C/C=C/C(C)=C/C(=O)O)C(C)(C)CCC1 [retinoic acid, Retinoic acid]
% fibrillogenesis of no treatment control [1]: 59.5±9.4%

O=C1O[C@H]([C@@H](O)CO)C(O)=C1O [ascorbic acid, Ascorbic acid]
effect of treatment on collagen fibrils (FIG. 5C) ([1]; 5, 10, 50 (unit uncertain), added 24 h prior to the assay and maintained throughout): moderate, yet statistically significant, enhancement of collagen fibrils
